Experiments:
Test in all cases: Kinase selectivity, DiscoverX scanMAX Kinase assay panel (% control)
Format in all cases: binding
[1] = biological target: T1, kinases of the scanMAX Kinase assay panel (Homo sapiens, UniProt P29322); settings: EPHA8; 1 uM
T1 construct: purchased DiscoverX Co. (contract measurement) scanMAX Kinase assay panel
T1 sequence (P29322 28-1005): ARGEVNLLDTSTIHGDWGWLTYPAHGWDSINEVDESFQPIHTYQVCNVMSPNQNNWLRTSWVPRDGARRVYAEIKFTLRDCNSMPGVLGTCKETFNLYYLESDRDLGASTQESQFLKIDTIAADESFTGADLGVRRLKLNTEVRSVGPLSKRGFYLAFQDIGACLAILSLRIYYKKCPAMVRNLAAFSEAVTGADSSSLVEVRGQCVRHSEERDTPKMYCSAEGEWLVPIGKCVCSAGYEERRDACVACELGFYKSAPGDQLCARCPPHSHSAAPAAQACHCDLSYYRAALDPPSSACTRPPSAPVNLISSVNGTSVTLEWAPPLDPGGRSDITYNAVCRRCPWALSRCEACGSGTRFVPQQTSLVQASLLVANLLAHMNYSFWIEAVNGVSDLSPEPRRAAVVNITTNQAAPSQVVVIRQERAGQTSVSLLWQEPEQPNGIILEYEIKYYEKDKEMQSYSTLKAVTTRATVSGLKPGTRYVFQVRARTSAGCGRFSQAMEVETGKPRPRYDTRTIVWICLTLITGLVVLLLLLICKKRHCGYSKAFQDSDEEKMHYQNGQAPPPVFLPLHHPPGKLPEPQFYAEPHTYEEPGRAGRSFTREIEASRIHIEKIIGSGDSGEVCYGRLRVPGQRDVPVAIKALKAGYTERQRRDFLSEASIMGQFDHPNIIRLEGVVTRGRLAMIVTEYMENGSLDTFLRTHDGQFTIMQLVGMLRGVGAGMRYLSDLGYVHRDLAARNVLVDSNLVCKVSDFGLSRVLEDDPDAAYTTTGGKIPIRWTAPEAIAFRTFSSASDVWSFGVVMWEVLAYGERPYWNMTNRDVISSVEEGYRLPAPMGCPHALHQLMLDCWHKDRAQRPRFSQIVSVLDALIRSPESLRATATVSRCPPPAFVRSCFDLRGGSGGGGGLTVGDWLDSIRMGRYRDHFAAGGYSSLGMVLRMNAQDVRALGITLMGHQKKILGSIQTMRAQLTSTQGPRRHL
Summary of the method: (§1)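 Read-out is % control, normalised so a positive-control compound sits at 0% and DMSO at 100%: (test − positive)/(negative − positive)×100. Each kinase received the compound at 1 uM in DMSO. A value below 35% counts as activity.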

[2] = biological target: T2, kinases of the scanMAX Kinase assay panel (Homo sapiens, UniProt Q02156); settings: PRKCE; 1 uM
T2 construct: purchased DiscoverX Co. (contract measurement) scanMAX Kinase assay panel
T2 sequence (Q02156 1-737): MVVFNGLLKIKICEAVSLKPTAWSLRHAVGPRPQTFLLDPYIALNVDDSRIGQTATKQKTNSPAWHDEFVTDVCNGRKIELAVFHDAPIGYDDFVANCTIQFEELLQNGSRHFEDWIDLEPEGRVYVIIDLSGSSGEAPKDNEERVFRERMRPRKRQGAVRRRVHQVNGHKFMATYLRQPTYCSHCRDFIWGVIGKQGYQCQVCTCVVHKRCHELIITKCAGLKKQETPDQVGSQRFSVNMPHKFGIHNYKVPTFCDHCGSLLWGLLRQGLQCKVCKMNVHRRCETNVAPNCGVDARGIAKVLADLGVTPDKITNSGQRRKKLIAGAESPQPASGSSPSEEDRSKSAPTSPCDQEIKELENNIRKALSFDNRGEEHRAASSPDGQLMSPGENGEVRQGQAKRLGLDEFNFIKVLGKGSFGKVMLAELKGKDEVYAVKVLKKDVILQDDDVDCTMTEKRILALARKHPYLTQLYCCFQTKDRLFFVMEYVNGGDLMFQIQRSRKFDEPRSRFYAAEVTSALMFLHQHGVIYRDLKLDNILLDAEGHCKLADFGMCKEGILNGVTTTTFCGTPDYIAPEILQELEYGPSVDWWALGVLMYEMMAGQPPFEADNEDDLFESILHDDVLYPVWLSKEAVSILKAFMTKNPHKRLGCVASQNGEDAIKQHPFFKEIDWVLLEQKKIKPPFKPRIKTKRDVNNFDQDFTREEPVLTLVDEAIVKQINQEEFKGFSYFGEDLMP
Summary of the method: as §1

[3] = biological target: T3, kinases of the scanMAX Kinase assay panel (Homo sapiens, UniProt Q96GD4); settings: AURKB; 1 uM
T3 construct: purchased DiscoverX Co. (contract measurement) scanMAX Kinase assay panel
T3 sequence (Q96GD4 whole entry): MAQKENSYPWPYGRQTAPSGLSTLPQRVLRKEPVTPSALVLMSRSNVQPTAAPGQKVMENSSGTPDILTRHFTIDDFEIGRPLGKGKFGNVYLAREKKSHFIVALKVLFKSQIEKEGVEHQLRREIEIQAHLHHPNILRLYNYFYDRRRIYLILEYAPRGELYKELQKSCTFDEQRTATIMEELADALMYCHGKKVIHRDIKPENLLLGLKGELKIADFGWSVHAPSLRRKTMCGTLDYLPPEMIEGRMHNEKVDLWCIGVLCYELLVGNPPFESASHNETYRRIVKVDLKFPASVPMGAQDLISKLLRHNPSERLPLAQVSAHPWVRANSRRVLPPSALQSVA
Summary of the method: as §1

[4] = biological target: T4, kinases of the scanMAX Kinase assay panel (Homo sapiens, UniProt Q9BWU1); settings: CDK11; 1 uM
T4 construct: purchased DiscoverX Co. (contract measurement) scanMAX Kinase assay panel
T4 sequence (Q9BWU1 whole entry): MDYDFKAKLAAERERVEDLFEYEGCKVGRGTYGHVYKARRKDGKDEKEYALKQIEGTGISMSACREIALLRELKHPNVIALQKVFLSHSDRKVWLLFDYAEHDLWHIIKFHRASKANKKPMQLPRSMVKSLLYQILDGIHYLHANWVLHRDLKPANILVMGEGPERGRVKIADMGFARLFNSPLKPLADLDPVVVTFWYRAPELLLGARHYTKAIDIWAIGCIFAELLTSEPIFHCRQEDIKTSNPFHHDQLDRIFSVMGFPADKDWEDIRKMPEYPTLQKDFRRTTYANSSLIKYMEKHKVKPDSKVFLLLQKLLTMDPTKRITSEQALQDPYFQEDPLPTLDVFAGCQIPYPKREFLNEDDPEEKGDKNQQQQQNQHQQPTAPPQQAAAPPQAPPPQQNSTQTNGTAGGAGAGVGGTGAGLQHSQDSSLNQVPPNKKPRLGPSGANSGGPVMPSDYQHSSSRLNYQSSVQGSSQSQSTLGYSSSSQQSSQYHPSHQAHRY
Summary of the method: as §1

[5] = biological target: T5, kinases of the scanMAX Kinase assay panel (Homo sapiens, UniProt Q9BYT3); settings: kinase STK33; 1 uM in DMSO
T5 construct: purchased DiscoverX Co. (contract measurement) scanMAX Kinase assay panel
T5 sequence (Q9BYT3 whole entry): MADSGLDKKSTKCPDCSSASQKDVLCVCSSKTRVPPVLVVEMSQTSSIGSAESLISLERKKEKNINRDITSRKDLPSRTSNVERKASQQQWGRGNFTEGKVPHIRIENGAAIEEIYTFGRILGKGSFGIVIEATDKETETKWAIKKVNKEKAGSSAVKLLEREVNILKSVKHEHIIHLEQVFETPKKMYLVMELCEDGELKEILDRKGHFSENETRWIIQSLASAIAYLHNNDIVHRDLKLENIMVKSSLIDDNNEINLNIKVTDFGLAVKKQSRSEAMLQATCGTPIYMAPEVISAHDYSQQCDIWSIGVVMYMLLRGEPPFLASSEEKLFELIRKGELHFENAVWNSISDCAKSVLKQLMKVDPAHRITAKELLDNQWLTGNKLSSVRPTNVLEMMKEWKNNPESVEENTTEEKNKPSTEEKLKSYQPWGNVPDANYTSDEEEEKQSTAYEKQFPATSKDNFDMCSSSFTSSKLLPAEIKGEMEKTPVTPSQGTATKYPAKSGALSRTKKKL
Summary of the method: as §1

[6] = biological target: T6, kinases of the scanMAX Kinase assay panel (Homo sapiens, UniProt Q9UPZ9); settings: ICK; 1 uM
T6 construct: purchased DiscoverX Co. (contract measurement) scanMAX Kinase assay panel
T6 sequence (Q9UPZ9 1-632): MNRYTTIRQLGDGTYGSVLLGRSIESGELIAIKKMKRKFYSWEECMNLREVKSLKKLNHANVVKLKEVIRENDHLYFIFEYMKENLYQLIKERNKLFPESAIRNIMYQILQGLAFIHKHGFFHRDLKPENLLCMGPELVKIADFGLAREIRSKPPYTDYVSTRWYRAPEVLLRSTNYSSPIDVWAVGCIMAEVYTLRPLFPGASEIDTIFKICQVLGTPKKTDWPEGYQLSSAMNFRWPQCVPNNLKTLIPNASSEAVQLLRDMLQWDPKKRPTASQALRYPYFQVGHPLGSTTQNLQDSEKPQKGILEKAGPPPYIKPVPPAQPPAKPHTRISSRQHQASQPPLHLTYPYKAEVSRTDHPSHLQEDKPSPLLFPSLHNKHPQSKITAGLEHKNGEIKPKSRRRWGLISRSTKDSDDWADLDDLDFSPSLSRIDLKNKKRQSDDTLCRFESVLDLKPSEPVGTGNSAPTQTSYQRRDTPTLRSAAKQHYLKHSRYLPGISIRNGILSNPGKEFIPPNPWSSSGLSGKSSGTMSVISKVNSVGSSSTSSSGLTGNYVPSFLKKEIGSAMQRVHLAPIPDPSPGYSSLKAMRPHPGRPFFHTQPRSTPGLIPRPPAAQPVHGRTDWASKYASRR
Summary of the method: as §1

`CCNc1nc(Nc2ccc(C(=O)N3CCC(N4CCOCC4)CC3)cc2OC)nc2[nH]cc(C(F)(F)F)c12` [Example 104, (4-((4-(ethylamino)-5-(trifluoromethyl)-7H-pyrrolo[2,3-d]pyrimidine-2-yl)amino)-3-methoxyphenyl)(4-morpholinopiperidine-1-yl)methanone] gave a remaining binding at 1 µM [1] of 93%, a remaining binding at 1 µM [2] of 100% and a remaining binding at 1 µM [3] of 90%. For the same compound, the remaining binding at 1 µM [4] was 96%, the remaining binding at 1 µM [5] was 13% and the remaining binding at 1 µM [6] was 96%.
`CC1(Nc2nc(Nc3cnn([C@H]4CCN(C5COC5)C[C@@H]4F)c3Cl)nc3[nH]cc(C#N)c23)CC1` [Example 52, 2-((5-chloro-1-((3S,4S)-3-fluoro-1-(oxetane-3-yl)piperidine-4-yl)-1H-pyrazole-4-yl)amino)((1-methylcyclopropyl)amino)-7H-pyrrolo[2,3-d]pyrimidine-5-carbonitrile] was tested, and the remaining binding at 1 µM [1] was 86%, the remaining binding at 1 µM [2] was 100% and the remaining binding at 1 µM [3] was 14%. The remaining binding at 1 µM [4] was 100%, the remaining binding at 1 µM [5] was 4% and the remaining binding at 1 µM [6] was 71%.
Work on `CNc1nc(Nc2ccc(C(=O)N3CCOCC3)cc2OC)nc2[nH]cc(C#N)c12` [Example 1, 2-((2-methoxy-4-(morpholine-4-carbonyl)phenyl)amino)-4-(methylamino)-7H-pyrrolo[2,3-d]pyrimidine-5-carbonitrile] yielded a remaining binding at 1 µM [1] of 97%, a remaining binding at 1 µM [2] of 100% and a remaining binding at 1 µM [3] of 73%. The remaining binding at 1 µM [4] was 87%, the remaining binding at 1 µM [5] was 18% and the remaining binding at 1 µM [6] was 73%.
